Measured values as given in patent publication US20050131209A1, “Crystallized hnf4 gamma ligand binding domain polypeptide and screening methods employing same” (priority 2001, published 2005).
Entries after “also recorded” stand apart in the source; their conditions may differ.

What was measured:
[1] = target: T1, HNF4α LBD / CBP (CREB-binding protein) (Homo sapiens, UniProt P41235); test: FRET assay of CBP recruitment to HNF4α LBD; type: biochemical; settings: cell-free FRET; for Kd: dose dependent, read-out: apparent binding constant (increase of CBP-HNF4 interaction); for effect on CBP recruitment / association between HNF4 and CBP: ligands incubated 15 minutes at 21° C.
T1 construct: HNF4α amino acids 141465 and HNF4γ amino acids 102-408; biotin (chemical biotinylation); made in house; host or cells: E. coli
T1 sequence (P41235 150-474 limits assumed): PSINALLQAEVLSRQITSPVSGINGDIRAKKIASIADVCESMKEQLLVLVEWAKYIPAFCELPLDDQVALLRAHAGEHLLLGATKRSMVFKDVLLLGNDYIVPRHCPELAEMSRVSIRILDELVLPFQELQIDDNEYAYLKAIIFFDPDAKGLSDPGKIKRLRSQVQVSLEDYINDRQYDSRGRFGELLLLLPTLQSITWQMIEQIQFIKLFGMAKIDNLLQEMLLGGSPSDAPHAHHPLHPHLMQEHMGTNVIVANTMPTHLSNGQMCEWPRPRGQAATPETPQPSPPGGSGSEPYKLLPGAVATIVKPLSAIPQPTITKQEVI
Method: (§1) To confirm that fatty acids were functional HNF4 ligands, HNF4α and HNF4γ were tested for their ability to recruit the nuclear receptor co-activator CREB binding protein, a known activation partner (Wang et al., (1998) J. Biol. Chem. 273: 30847-50; Dell & Hadzopoulou-Cladaras, (1999) J. Biol. Chem. 274: 9013-21). A FRET (fluorescent resonance energy transfer) assay was employed using purified recombinant CREB-binding protein (CBP) and HNF4 LBD (Zhou et al., (1998) Mol. Endocrinol. 12: 1594-1604). Long-chain fatty acids (LCFA) with increasing carbon lengths from 12 to 18 carbon methylene units were tested for their ability to modulate the association between HNF4 and CBP in a dose dependent manner. […] Palmitic and stearic acids increased the allosteric interaction between CBP and HNF4, with apparent binding constants of 1 μM.
(§2) The reported ligands for HNF4α are fatty acyl-CoA thioesters (Hertz et al., (1998) Nature (London) 392: 512-16), which are much larger than other nuclear receptor ligands (Bogan et al., (1998) Nat. Struct. Biol. 5: 679-81). […] Shorter fatty acyl-CoAs had no effect on CBP association.
(§3) A cell-free fluorescent resonance energy transfer (FRET) assay was used to measure the association between the amino portion of CBP (CREB-binding protein) (residues 54-457) and the HNF4 LBD (HNF4α amino acids 141465 and HNF4γ amino acids 102-408) (Zhou et al., (1998) Mol. Endocrinol 12: 1594-1604). Proteins were expressed in E. coli, purified to homogeneity, and biotinylated. CBP, the fluorescence donor, was labeled with a europium chelate, and HNF4 LBD was labeled with the streptavidin-conjugated fluorophore allophycocyanin (Molecular Probes, Eugene, Oreg.). Labeled HNF4 LBD and CBP were incubated together with ligands for 15 minutes at 21° C. before assaying. A small basal level was observed, as depicted in FIG. 3.

[2] = target: T2, HNF4γ LBD / CBP (CREB-binding protein) (Homo sapiens, UniProt Q14541); test: FRET assay of CBP recruitment to HNF4γ LBD; type: biochemical; settings: cell-free FRET; for Kd: dose dependent, read-out: apparent binding constant (increase of CBP-HNF4 interaction); for effect on CBP recruitment / association between HNF4 and CBP: ligands incubated 15 minutes at 21° C.
T2 construct: HNF4γ amino acids 102-408; biotin (chemical biotinylation); made in house; host or cells: E. coli
T2 sequence (Q14541 102-408): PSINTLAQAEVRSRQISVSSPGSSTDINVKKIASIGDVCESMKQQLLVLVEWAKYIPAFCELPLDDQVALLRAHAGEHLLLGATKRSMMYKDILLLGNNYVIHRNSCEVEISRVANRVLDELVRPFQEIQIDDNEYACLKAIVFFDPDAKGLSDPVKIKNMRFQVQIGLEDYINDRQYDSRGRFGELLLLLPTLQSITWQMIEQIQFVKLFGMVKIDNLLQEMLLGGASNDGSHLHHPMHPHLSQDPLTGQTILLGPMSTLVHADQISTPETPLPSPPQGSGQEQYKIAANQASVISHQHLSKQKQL
Method: as §1, §2, §3

[3] = target: T3, HNF4γ LBD (Homo sapiens, UniProt Q14541); test: GC/MS identification of fatty acids bound to purified HNF4γ LBD (extract); type: binding; settings: lipid extract of purified HNF4γ LBD, methyl esters, CI and EI
T3 construct: HNF4γ amino acids 102-408; made in house; host or cells: E. coli BL21 (DE3), vector pRSETa
T3 sequence (Q14541 102-408): T2 sequence (Q14541 102-408)
Method: The description of the bound ligand from the structural data led to the belief that the compound was a fatty acid. Analytical methods were used to obtain a definitive identification of the ligand. First, bound ligand(s) was separated from a purified preparation of HNF4γ LBD by liquid-liquid extraction (Folch et al., (1957) J. Biol. Chem. 226: 497-509). The extract was then treated with 3% (v/v) acetyl chloride in methanol. This reagent converts fatty acids to their corresponding fatty acid methyl esters (FAME). The derivatized sample was then analyzed by gas chromatography/mass spectrometry (GC/MS) using both electron impact ionization (EI) and chemical ionization (CI) in separate analyses. The constituents of the extract were identified by comparing the GC/MS data for the extract with data for standard fatty acids, acquired likewise.
The CI mass spectra for peaks a through g all show a protonated molecular ion ([M+H]^+) along with a fragment ion at a mass-to-charge (m/z) value 32 Da below the protonated molecular ion. […]
The second column lists the protonated molecular ion detected of each labeled peak in FIG. 4. […]
Lipids were extracted from an aliquot of HNF4γ LBD with chloroform/methanol 2:1 (v/v). […] The derivatized sample was then analyzed by GC/MS on a Shimadzu GC-17A QP-5050A instrument. […]

[4] = target: T4, HNF4α (Homo sapiens, UniProt P41235); test: GC/MS analyses of receptor extracts, HNF4α; type: binding
T4 sequence (P41235 1-474): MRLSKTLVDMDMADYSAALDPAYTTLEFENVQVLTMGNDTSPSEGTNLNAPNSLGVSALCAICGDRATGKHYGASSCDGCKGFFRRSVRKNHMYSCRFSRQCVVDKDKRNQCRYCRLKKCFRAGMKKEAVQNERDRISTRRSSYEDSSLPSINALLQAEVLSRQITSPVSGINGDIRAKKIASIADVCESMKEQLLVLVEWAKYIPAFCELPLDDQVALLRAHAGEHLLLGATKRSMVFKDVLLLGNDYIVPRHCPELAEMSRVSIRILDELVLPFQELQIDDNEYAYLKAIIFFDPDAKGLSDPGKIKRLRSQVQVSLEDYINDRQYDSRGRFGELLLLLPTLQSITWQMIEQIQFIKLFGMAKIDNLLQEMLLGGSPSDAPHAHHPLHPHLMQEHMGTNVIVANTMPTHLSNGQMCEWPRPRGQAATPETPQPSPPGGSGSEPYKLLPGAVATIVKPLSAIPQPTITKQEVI
Source text: Palmitic acid forms hydrogen bonds with the side chain of arginine 186, and with the backbone nitrogen of glycine 197 (not shown). Alanine 215 corresponds to serine 256 in HNF4α. Because serine can form hydrogen bonds to the ligand, the specificity is different for the two receptor subtypes. […] Valine 214 corresponds to valine 255 in HNF4α, and is one of the mutations associated with MODY, Type 1.

Structure (SMILES) | Kd [1] [nM] | effect on CBP recruitment / association between HNF4 and CBP [1] | Kd [2] [nM] | effect on CBP recruitment / association between HNF4 and CBP [2] | fatty acid found in HNF4γ extract by GC/MS [3] | binding to HNF4α by GC/MS of receptor extracts [4]
CCCCCCCCCCCCCCCC(=O)O [palmitic acid] | 1000 | functional activators; also recorded: increased | 1000 | functional activators; also recorded: increased | most abundant component | binds
CCCCCCCCCCCCCCCC(=O)SCCNC(=O)CCNC(=O)[C@H](O)C(C)(C)COP(=O)(O)OP(=O)(O)OC[C@H]1O[C@@H](n2cnc3c(N)ncnc32)[C@H](O)[C@@H]1OP(=O)(O)O [palmitoyl-CoA] |  | decreased the basal level |  | decreased the basal level |  | 
CCCCCCCCCCCCCCCCCC(=O)O [stearic acid] | 1000 | functional activators; also recorded: increased | 1000 | functional activators; also recorded: increased |  | binds
CCCCCCCCCCCCCCCCCC(=O)SCCNC(=O)CCNC(=O)[C@H](O)C(C)(C)COP(=O)(O)OP(=O)(O)OC[C@H]1O[C@@H](n2cnc3c(N)ncnc32)[C@H](O)[C@@H]1OP(=O)(O)O [steroyl-CoA] |  | decreased the basal level |  | decreased the basal level |  | 
